In the supplement of paper PMC10307832:

How the values were obtained:
Selisistat + Foretinib = compound: C1CC(C2=C(C1)C3=C(N2)C=CC(=C3)Cl)C(=O)N [Selisistat] + COc1cc2c(Oc3ccc(NC(=O)C4(C(=O)Nc5ccc(F)cc5)CC4)cc3F)ccnc2cc1OCCCN1CCOCC1 [Foretinib] (partner 0.25 µM); experiment: relative viability (nuclei count vs DMSO), 5 days (fraction); higher = more cells survive
Procedure, shortened: (§1)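 Lung cancer cell lines, seeded in 1536-well plates, were treated the following day by pin tool with a single drug or with five library-drug doses (not always all listed) in √10 steps on top of a fixed anchor-drug dose. Cells were fixed and nuclei stained in one step after 5 days, and nuclei were counted. Relative viability is the nuclei count for treated wells divided by that for vehicle wells, reported as medians of duplicate plates.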

Serdemetan + Tozasertib = compound: c1ccc2c(CCNc3ccc(Nc4ccncc4)cc3)c[nH]c2c1 [Serdemetan] + Cc1cc(Nc2cc(N3CCN(C)CC3)nc(Sc3ccc(NC(=O)C4CC4)cc3)n2)n[nH]1 [Tozasertib] (partner 0.1 µM); experiment: as above
Procedure, shortened: as §1

Row | Cell Line | relative viability (Selisistat + Foretinib; first compound 0.4 µM) | relative viability (Selisistat + Foretinib; first compound 1.265 µM) | relative viability (Selisistat + Foretinib; first compound 4 µM) | relative viability (Selisistat + Foretinib; first compound 12.65 µM) | relative viability (Selisistat + Foretinib; first compound 40 µM) | relative viability (Serdemetan + Tozasertib; first compound 0.04 µM) | relative viability (Serdemetan + Tozasertib; first compound 0.1265 µM) | relative viability (Serdemetan + Tozasertib; first compound 0.4 µM) | relative viability (Serdemetan + Tozasertib; first compound 1.265 µM) | relative viability (Serdemetan + Tozasertib; first compound 4 µM)
1 | NCI-H460 | 1.01 | 0.969 | 0.967 | 1.01 | 1.05 | 0.647 | 0.403 | 0.399 | 0.402 | 0.12
2 | NCI-H661 | 1.06 | 1.04 | 0.977 | 0.936 | 0.876 | 0.362 | 0.381 | 0.385 | 0.308 | 0.352
3 | HCC-15 | 1.21 | 0.996 |  | 1.05 | 1.21 | 0.377 | 0.367 | 0.377 | 0.294 | 0.283
4 | ABC-1 | 0.927 | 1.04 | 0.929 | 1.08 | 1.16 | 0.132 | 0.171 | 0.182 | 0.177 | 0.162
5 | LCLC-103H | 0.691 | 0.851 | 0.748 | 0.683 | 0.805 | 0.611 | 0.605 | 0.502 | 0.448 | 0.402
6 | NCI-H441 | 0.936 | 1.12 | 0.961 | 0.951 | 0.817 | 0.719 | 0.669 | 0.687 | 0.709 | 0.605
7 | EPLC-272H | 0.849 | 0.662 |  | 0.566 | 0.631 | 0.269 | 0.309 | 0.306 | 0.169 | 0.249
